Results published in publication PMC4666608, “Metabolic Profiling of Chicken Embryos Exposed to Perfluorooctanoic Acid (PFOA) and Agonists to Peroxisome Proliferator-Activated Receptors” (PLoS ONE, 2015).
Marks after values point to notes of the source that are not given here.

Test system: chicken embryos
Assay: Metabolic profiling of allantoic fluid (GC-MS, LC-MS, OPLS-DA)
Assay type: in vivo, Gallus gallus domesticus
Conditions: LC; for Mean concentration relative to control, feature 155.0353@0.6447272: suggested C3H10NO4P; for Mean concentration relative to control, feature 345.0497@1.1234403: suggested C10H12N5O7P; for Mean concentration relative to control, feature 337.0259@4.4213357: suggested C13H11N3O4S2; for Mean concentration relative to control, feature 344.1427@2.1164653: suggested C13H20N4O7; for Mean concentration relative to control, feature 331.184@6.373359: suggested C13H25N5O5; for Mean concentration relative to control, feature 361.2026@5.6644735: suggested C16H31N3O4S
Method: Controls were injected with 20 μL vehicle only (DMSO).
Plasma was collected and stored at -70°C.
Metabolites in allantoic fluid and blood plasma were analyzed using gas chromatography-mass spectrometry (GC-MS) and liquid chromatography-mass spectrometry (LC-MS) as described in S1 Methods. Prior to GC-MS and LC-MS analysis, allantoic fluid (100 μL) and blood plasma (50 μL) were extracted. To each sample, 900 μL (allantoic fluid) or 450 μL (blood plasma) of extraction buffer (90/10 v/v methanol:water) including all internal standards were added. Standards for GC-MS were proline, succinic acid, glutamic acid, salicylic acid, alpha-ketoglutarate, putrescine, myristic acid, hexadecanoic acid, cholesterol, and sucrose. Standards for LC-MS were Val-Tyr-Val, Leu-enkephalin, sulfadimethoxine and reserpine. Samples were homogenized by shaking in a bead mill at a frequency of 30 Hz for 3 minutes and proteins were precipitated at +4°C on ice. The samples were centrifuged at +4°C, 14000 rpm, for 10 min. Then, 200 μL supernatant was transferred to a GC microvial and 200 μL was transferred to an LC microvial, and solvents were evaporated. Samples from the four replicate experiments were analyzed using in chronological order and within each replicate experiment the run order of the individual samples was randomized.
Multivariate statistical analyses of metabolite profiles were performed using the software package SIMCA-P version 13.0 (Umetrics, Umeå, Sweden). Data was centered and scaled to variance 1 (UV scaling) prior to modelling. To reduce unintended systematic variation caused by sample processing and instrument drift, GC-MS and LC-MS metabolite amounts (expressed as the area under the chromatographic peak) were normalized by Orthogonal Partial Least Squares analysis (O2PLS) prior to multivariate data analysis. O2PLS finds common (predictive) and unique (orthogonal) variation in two data matrices. If applied to find the common variation between the data matrix containing the measured metabolite concentrations and a matrix containing only the internal standards, the only common (predictive) variation expected is due to the unintended systematic variation. By deleting the contribution of the predictive latent variables, that variation can be removed from the data. Models obtained after this normalization contain in general less latent variables, and this simplification helps when deciding on the number of latent variables to be used. Following normalization, GC-MS and LC-MS data were analyzed together. Initially, a global Principal Component Analysis (PCA) was performed to get an overview of groups and trends and to identify outliers. Projections to latent structures by means of Orthogonal Partial Least Squares Discriminant Analysis (OPLS-DA) was used to model the relationship between the X-matrix (metabolite concentrations) and the Y matrix (class, i.e. exposure group or sex), and to find x-variables that were related to class belonging. OPLS-DA is a supervised prediction and regression method that rotates the projection plane to find the maximum covariance between the data and the class assignment. All groups were first analyzed together in a 5-class OPLS-DA and then each exposure group was analyzed against the control group in a 2-class OPLS-DA. Sex differences were analyzed both using the whole data set and in each group separately using 2-class OPLS-DA, with females and males as the two classes. Only variables with 80% or more nonzero values were included in the statistical models. […] The validity of each model was also checked using CV-ANOVA (ANOVA of the cross-validated residuals). A significance level of p < 0.05 was used. For each model, R ^2 X, R ^2 Y and Q ^2 values were calculated, where R ^2 X is a measure of the fraction of x variation modeled in the extracted latent variables, R ^2 Y is a measure of the fraction of y variation modeled and Q ^2 is an estimate of the predictive ability of the model and is calculated by cross-validation. […]

Structure (SMILES): O=C(O)C(F)(F)C(F)(F)C(F)(F)C(F)(F)C(F)(F)C(F)(F)C(F)(F)F [PFOA, perfluorooctanoic acid]
- Mean concentration relative to control, feature 466.0837@2.1187525 (PFOA 50 μg/egg): 1.0
- Mean concentration relative to control, feature 488.0753@4.419585 (PFOA 50 μg/egg): 1.0
- Mean concentration relative to control, feature 498.1003@2.1184251 (PFOA 50 μg/egg): 1.0
- Mean concentration relative to control, feature 507.1682@2.1238236 (PFOA 50 μg/egg): 1.0
- Mean concentration relative to control, feature 580.1426@3.0726147 (PFOA 50 μg/egg): 1.0
- Mean concentration relative to control, feature 582.1578@2.1747615 (PFOA 50 μg/egg): 1.0
- Mean concentration relative to control, feature 588.1751@2.1182237 (PFOA 50 μg/egg): 1.0
- Mean concentration relative to control, feature 594.1337@3.0724604 (PFOA 50 μg/egg): 1.0
- Mean concentration relative to control, feature 604.1486@2.1174603 (PFOA 50 μg/egg): 1.0
- Mean concentration relative to control, feature 623.183@2.1249466 (PFOA 50 μg/egg): 0.9
- Mean concentration relative to control, feature 668.2625@6.4379454 (PFOA 50 μg/egg): 1.0
- Mean concentration relative to control, feature 155.0353@0.6447272 (PFOA 50 μg/egg): 0.4*
- Mean concentration relative to control, feature 345.0497@1.1234403 (PFOA 50 μg/egg): 1.1
- Mean concentration relative to control, feature 337.0259@4.4213357 (PFOA 50 μg/egg): 1.0
- Mean concentration relative to control, feature 344.1427@2.1164653 (PFOA 50 μg/egg): 1.0
- Mean concentration relative to control, feature 331.184@6.373359 (PFOA 50 μg/egg): 0.9
- Mean concentration relative to control, feature 361.2026@5.6644735 (PFOA 50 μg/egg): 0.8
- Mean concentration relative to control, feature 134.0239@1.1350567 (PFOA 250 μg/egg): 0.9
- Mean concentration relative to control, feature 145.0538@3.072527 (PFOA 250 μg/egg): 1.1
- Mean concentration relative to control, feature 147.0328@3.0722888 (PFOA 250 μg/egg): 1.1
- Mean concentration relative to control, feature 160.0323@1.1950632 (PFOA 250 μg/egg): 1.1
- Mean concentration relative to control, feature 173.0488@3.0734746 (PFOA 250 μg/egg): 1.1
- Mean concentration relative to control, feature 176.0952@1.3890611 (PFOA 250 μg/egg): 0.5*
- Mean concentration relative to control, feature 178.0428@1.7582192 (PFOA 250 μg/egg): 1.0
- Mean concentration relative to control, feature 180.0048@4.421465 (PFOA 250 μg/egg): 1.0
- Mean concentration relative to control, feature 189.1159@1.9209185 (PFOA 250 μg/egg): 0.9
- Mean concentration relative to control, feature 197.0639@2.1181405 (PFOA 250 μg/egg): 1.0
- Mean concentration relative to control, feature 201.012@3.046474 (PFOA 250 μg/egg): 1.1
- Mean concentration relative to control, feature 202.0429@2.9548414 (PFOA 250 μg/egg): 1.0
- Mean concentration relative to control, feature 205.0533@4.421879 (PFOA 250 μg/egg): 1.0
- Mean concentration relative to control, feature 214.016@2.1190732 (PFOA 250 μg/egg): 0.9
- Mean concentration relative to control, feature 226.0107@4.421457 (PFOA 250 μg/egg): 1.0
- Mean concentration relative to control, feature 236.0816@3.0720985 (PFOA 250 μg/egg): 1.1
- Mean concentration relative to control, feature 241.0551@2.3510706 (PFOA 250 μg/egg): 1.0
- Mean concentration relative to control, feature 243.1118@2.1537287 (PFOA 250 μg/egg): 1.0
- Mean concentration relative to control, feature 244.9972@4.421603 (PFOA 250 μg/egg): 1.0
- Mean concentration relative to control, feature 245.1563@2.2907295 (PFOA 250 μg/egg): 0.9
- Mean concentration relative to control, feature 250.0981@3.072492 (PFOA 250 μg/egg): 1.1
- Mean concentration relative to control, feature 262.0978@2.7961144 (PFOA 250 μg/egg): 1.1
- Mean concentration relative to control, feature 263.0855@2.2847009 (PFOA 250 μg/egg): 1.0
- Mean concentration relative to control, feature 270.0441@1.1407775 (PFOA 250 μg/egg): 1.0
- Mean concentration relative to control, feature 278.0928@3.0723689 (PFOA 250 μg/egg): 1.1
- Mean concentration relative to control, feature 279.1248@2.796395 (PFOA 250 μg/egg): 1.2
- Mean concentration relative to control, feature 280.1425@2.730277 (PFOA 250 μg/egg): 1.0
- Mean concentration relative to control, feature 288.1166@2.9551322 (PFOA 250 μg/egg): 1.2
- Mean concentration relative to control, feature 289.1012@3.249983 (PFOA 250 μg/egg): 1.0
- Mean concentration relative to control, feature 289.173@7.5030584 (PFOA 250 μg/egg): 1.2
- Mean concentration relative to control, feature 294.1242@2.3692534 (PFOA 250 μg/egg): 1.0
- Mean concentration relative to control, feature 302.0508@3.0722616 (PFOA 250 μg/egg): 1.1
- Mean concentration relative to control, feature 305.1682@5.353517 (PFOA 250 μg/egg): 0.5***
- Mean concentration relative to control, feature 305.1684@5.2955093 (PFOA 250 μg/egg): 0.7**
- Mean concentration relative to control, feature 308.073@4.4211636 (PFOA 250 μg/egg): 1.0
- Mean concentration relative to control, feature 310.1181@1.5090439 (PFOA 250 μg/egg): 1.0
- Mean concentration relative to control, feature 316.0389@3.0725708 (PFOA 250 μg/egg): 1.1
- Mean concentration relative to control, feature 320.0626@3.0729218 (PFOA 250 μg/egg): 1.1
- Mean concentration relative to control, feature 325.1114@2.1190624 (PFOA 250 μg/egg): 1.1
- Mean concentration relative to control, feature 325.1115@2.3554378 (PFOA 250 μg/egg): 1.1
- Mean concentration relative to control, feature 333.1335@2.8639288 (PFOA 250 μg/egg): 0.9
- Mean concentration relative to control, feature 333.2005@6.5291867 (PFOA 250 μg/egg): 0.8*
- Mean concentration relative to control, feature 335.1866@4.508565 (PFOA 250 μg/egg): 0.9
- Mean concentration relative to control, feature 337.1651@1.8737898 (PFOA 250 μg/egg): 0.9
- Mean concentration relative to control, feature 344.1424@2.348947 (PFOA 250 μg/egg): 1.0
- Mean concentration relative to control, feature 348.0553@3.0730357 (PFOA 250 μg/egg): 1.1
- Mean concentration relative to control, feature 349.1651@2.4087605 (PFOA 250 μg/egg): 0.9
- Mean concentration relative to control, feature 357.1997@6.9691257 (PFOA 250 μg/egg): 0.9
- Mean concentration relative to control, feature 371.1513@3.0009465 (PFOA 250 μg/egg): 1.2
- Mean concentration relative to control, feature 375.1819@3.672254 (PFOA 250 μg/egg): 0.9
- Mean concentration relative to control, feature 394.167@3.9552917 (PFOA 250 μg/egg): 1.0
- Mean concentration relative to control, feature 414.1482@2.118972 (PFOA 250 μg/egg): 1.1
- Mean concentration relative to control, feature 466.0837@2.1187525 (PFOA 250 μg/egg): 1.1
- Mean concentration relative to control, feature 488.0753@4.419585 (PFOA 250 μg/egg): 1.0
- Mean concentration relative to control, feature 498.1003@2.1184251 (PFOA 250 μg/egg): 1.0
- Mean concentration relative to control, feature 507.1682@2.1238236 (PFOA 250 μg/egg): 1.0
- Mean concentration relative to control, feature 580.1426@3.0726147 (PFOA 250 μg/egg): 1.2
- Mean concentration relative to control, feature 582.1578@2.1747615 (PFOA 250 μg/egg): 1.2
- Mean concentration relative to control, feature 588.1751@2.1182237 (PFOA 250 μg/egg): 1.1
- Mean concentration relative to control, feature 594.1337@3.0724604 (PFOA 250 μg/egg): 1.2
- Mean concentration relative to control, feature 604.1486@2.1174603 (PFOA 250 μg/egg): 1.0
- Mean concentration relative to control, feature 623.183@2.1249466 (PFOA 250 μg/egg): 1.1
- Mean concentration relative to control, feature 668.2625@6.4379454 (PFOA 250 μg/egg): 1.0
- Mean concentration relative to control, feature 155.0353@0.6447272 (PFOA 250 μg/egg): 0.3*
- Mean concentration relative to control, feature 345.0497@1.1234403 (PFOA 250 μg/egg): 1.1
- Mean concentration relative to control, feature 337.0259@4.4213357 (PFOA 250 μg/egg): 1.0
- Mean concentration relative to control, feature 344.1427@2.1164653 (PFOA 250 μg/egg): 1.0
- Mean concentration relative to control, feature 331.184@6.373359 (PFOA 250 μg/egg): 0.7**
- Mean concentration relative to control, feature 361.2026@5.6644735 (PFOA 250 μg/egg): 0.9
